# According to ChEMBL document CHEMBL2150864 (Eur J Med Chem, 2012):
# How the values were obtained:
# [1] = molecular target: Vascular endothelial growth factor receptor 2 (Homo sapiens, UniProt P35968); test: Binding affinity to DNA-tagged VEGFR2 by qPCR based competitive binding assay
# [2] = Cytotoxicity against VEGFR expressing HAEC after 72 hrs by MTT assay; format: functional, Homo sapiens
# HT-29 = test: Cytotoxicity against VEGFR expressing human HT-29 cells after 72 hrs by MTT assay; format: functional, cell-based; settings: HT-29, 72 h
# [3] = Metabolic stability in Wistar rat plasma at 39 MBq, iv after 60 mins; format: ADME, organism-based; settings: read-out: Stability
# Vascular endothelial growth factor receptor 2, sequence (P35968 whole entry): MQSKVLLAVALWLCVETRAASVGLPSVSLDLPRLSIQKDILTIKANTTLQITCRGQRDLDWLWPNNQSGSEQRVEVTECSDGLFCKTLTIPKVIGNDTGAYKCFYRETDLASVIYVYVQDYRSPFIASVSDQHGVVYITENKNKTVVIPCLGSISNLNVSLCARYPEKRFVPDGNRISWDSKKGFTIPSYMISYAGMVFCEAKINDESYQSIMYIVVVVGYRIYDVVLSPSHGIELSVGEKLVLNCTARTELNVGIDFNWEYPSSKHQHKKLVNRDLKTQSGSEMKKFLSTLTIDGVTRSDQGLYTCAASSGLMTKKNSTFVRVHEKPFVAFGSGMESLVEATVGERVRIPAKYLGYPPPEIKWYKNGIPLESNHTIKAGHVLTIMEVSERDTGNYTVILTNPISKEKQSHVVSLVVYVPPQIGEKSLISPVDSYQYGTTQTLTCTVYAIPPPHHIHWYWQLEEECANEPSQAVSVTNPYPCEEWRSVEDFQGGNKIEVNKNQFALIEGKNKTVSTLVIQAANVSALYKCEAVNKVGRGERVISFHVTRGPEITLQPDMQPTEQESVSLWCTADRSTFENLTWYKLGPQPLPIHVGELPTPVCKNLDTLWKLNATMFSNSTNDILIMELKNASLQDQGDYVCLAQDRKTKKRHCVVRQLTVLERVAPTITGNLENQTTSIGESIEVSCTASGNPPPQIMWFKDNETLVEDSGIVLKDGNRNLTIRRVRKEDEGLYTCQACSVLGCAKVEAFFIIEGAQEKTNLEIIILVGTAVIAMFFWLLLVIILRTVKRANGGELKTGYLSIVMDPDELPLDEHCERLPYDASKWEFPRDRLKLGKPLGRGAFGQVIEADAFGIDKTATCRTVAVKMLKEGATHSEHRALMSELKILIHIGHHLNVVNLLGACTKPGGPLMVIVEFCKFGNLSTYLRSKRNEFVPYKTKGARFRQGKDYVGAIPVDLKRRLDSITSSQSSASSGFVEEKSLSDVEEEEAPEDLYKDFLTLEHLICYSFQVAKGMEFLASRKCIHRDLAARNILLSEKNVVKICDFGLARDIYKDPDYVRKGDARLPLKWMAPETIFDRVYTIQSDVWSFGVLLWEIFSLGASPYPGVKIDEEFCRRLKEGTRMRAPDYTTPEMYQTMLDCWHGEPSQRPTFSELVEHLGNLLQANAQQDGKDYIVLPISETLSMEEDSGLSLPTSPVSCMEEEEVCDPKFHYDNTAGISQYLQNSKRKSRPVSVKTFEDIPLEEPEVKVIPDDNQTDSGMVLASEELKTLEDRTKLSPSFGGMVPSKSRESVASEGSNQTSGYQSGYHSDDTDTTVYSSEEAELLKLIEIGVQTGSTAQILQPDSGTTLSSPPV
Kd [1],remaining at 1 h [3],SMILES,IC50 [2],IC50 (HT-29)
0.02 µM,,CCN(CC)CCNC(=O)c1c(C)[nH]c(/C=C2\C(=O)Nc3ccc(OC)cc32)c1C,54.8 µM,7.88 µM
,> 70%,CCN(CC)CCNC(=O)c1c(C)[nH]c(/C=C2\C(=O)Nc3ccc(O[11CH3])cc32)c1C,,
,,CCN(CC)CCNC(=O)c1c(C)[nH]c(/C=C2\C(=O)Nc3ccc(F)cc32)c1C [SUNITINIB],0.1 µM,
